According to PMC9646721, “Alkaloid binding to opium poppy major latex proteins triggers structural modification and functional aggregation” (Nature Communications, 2022):
Values joined by “and” are separate entries in the source; they are usually repeats but may differ in a detail not shown here. Identical values can stand only once.

How the values were obtained:
NISO [1] = target: T1, NISO (Papaver somniferum, UniProt P0DYP9); parameters: made in house; host or cells: E. coli ArcticExpress (DE3); conditions: read-out: Km app (substrate kinetics); cited from earlier work
T1 sequence (P0DYP9 entry or part of it): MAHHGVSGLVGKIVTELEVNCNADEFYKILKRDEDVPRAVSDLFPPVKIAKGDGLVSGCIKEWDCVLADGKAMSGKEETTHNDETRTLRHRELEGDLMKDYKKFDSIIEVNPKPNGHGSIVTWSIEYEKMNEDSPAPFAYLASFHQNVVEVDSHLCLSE

PR10-10 = target: T2, PR10-10 (Papaver somniferum, UniProt A0A9Y2YA81); assay: ANS fluorescence binding curve (direct ANS-protein affinity); conditions: weak signal, Kd not determined
T2 sequence (A0A9Y2YA81 1-158): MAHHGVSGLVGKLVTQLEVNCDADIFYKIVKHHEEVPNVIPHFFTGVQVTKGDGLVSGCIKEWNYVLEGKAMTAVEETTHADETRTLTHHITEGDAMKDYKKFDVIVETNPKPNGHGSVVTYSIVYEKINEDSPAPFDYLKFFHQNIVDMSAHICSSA
Description: (§1) 8-anilino-1-naphthalenesulfonic acid (ANS) fluorescence binding curves and the binding-induced reduction in ANS fluorescence resulting from competition with tested ligands across a range of concentration facilitated the measurement of IC50 and an estimate of Kd values using the binding models and procedures described previously[70]. […] ANS was dissolved in dimethylsufoxide at a concentration of 20 mM, stored at −20 °C until dilution and protected from exposure to light. […] 40 µl of the ANS solution and 40 µl of each MLP/PR10 protein solution were combined to 80 µl final reaction volumes, which were incubated at 21 °C for 10 min to allow equilibration of binding. […] An identical reaction series whereby protein was omitted from the mixtures was measured under identical conditions and trace fluorescence was subtracted from each MLP/PR10 protein-containing sample. Each data set was scaled so that the maximum observed fluorescence corresponded to 100% and individual data points were plotted, and a rectangular hyperbolic ligand binding function was fit, using least-squares analysis (Prism 5 software, Graphpad, USA). Experiments were repeated at least twice with independently prepared protein.

PR10-4 = conditions: read-out: Kd (ANS-protein, apparent); ANS 10 µM fixed, protein 0 to 100 µM; CBS pH 5.5; one-site hyperbolic model
Description: (§2) 8-anilino-1-naphthalenesulfonic acid (ANS) fluorescence binding curves and the binding-induced reduction in ANS fluorescence resulting from competition with tested ligands across a range of concentration facilitated the measurement of IC50 and an estimate of Kd values using the binding models and procedures described previously[70]. […] ANS was dissolved in dimethylsufoxide at a concentration of 20 mM, stored at −20 °C until dilution and protected from exposure to light. […] 40 µl of the ANS solution and 40 µl of each MLP/PR10 protein solution were combined to 80 µl final reaction volumes, which were incubated at 21 °C for 10 min to allow equilibration of binding. Triplicate 18-µl aliquots were withdrawn from each 80 µl reaction, transferred to optically clear PCR tubes (Diamed, Canada) and ANS fluorescence was measured following an additional 3-min incubation at 30 °C using a Qiagen Rotor-gene Q 6-plex with excitation and emission filters of 365 ± 20 nm and 460 ± 20 nm, respectively. An identical reaction series whereby protein was omitted from the mixtures was measured under identical conditions and trace fluorescence was subtracted from each MLP/PR10 protein-containing sample. […]

PR10-12 = conditions: read-out: Kd (ANS-protein, apparent); ANS 10 µM fixed, protein 0 to 100 µM; CBS pH 5.5; one-site hyperbolic model
Description: as §2

MLP2 = conditions: read-out: Kd (ANS-protein, apparent); ANS 10 µM fixed, protein 0 to 100 µM; CBS pH 5.5; one-site hyperbolic model
Description: as §2

THS2 = THS2 (Papaver somniferum, UniProt A0A2U9GGW3); assay: ANS fluorescence binding curve (direct ANS-protein affinity); parameters: made in house; host or cells: E. coli ArcticExpress (DE3); conditions: Kd (ANS-protein, apparent), ANS 10 µM fixed, protein 0 to 100 µM; CBS pH 5.5; one-site hyperbolic model
THS2, sequence (A0A2U9GGW3 whole entry): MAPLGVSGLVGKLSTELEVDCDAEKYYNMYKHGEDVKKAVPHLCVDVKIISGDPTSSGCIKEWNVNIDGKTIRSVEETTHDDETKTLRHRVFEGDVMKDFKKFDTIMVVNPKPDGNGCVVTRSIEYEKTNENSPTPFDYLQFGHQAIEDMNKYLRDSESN
Description: as §1

NISO [2] = target: T1, NISO; assay: as above; parameters: made in house; host or cells: E. coli ArcticExpress (DE3); conditions: Kd (ANS-protein, apparent), ANS 10 µM fixed, protein 0 to 100 µM; CBS pH 5.5; one-site hyperbolic model
Description: as §1

MLP15 [3] = target: T3, MLP15 (Papaver somniferum, UniProt P19825); assay: as above; parameters: made in house; host or cells: E. coli ArcticExpress (DE3); conditions: Kd (ANS-protein, apparent), ANS 10 µM fixed, protein 0 to 100 µM; CBS pH 5.5; one-site hyperbolic model
T3 sequence (P19825 1-159): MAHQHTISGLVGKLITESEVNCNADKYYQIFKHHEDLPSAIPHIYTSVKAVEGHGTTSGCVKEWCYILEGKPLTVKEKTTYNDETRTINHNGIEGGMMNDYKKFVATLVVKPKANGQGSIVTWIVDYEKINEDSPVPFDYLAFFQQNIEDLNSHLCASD
Description: as §1

MLP15 [4] = target: T3, MLP15; assay: Isothermal titration calorimetry; type: binding; parameters: made in house; host or cells: E. coli ArcticExpress (DE3); conditions: ITC, CBS pH 5.5, 25 °C
Description: ITC experiments were conducted using a Microcal VP instrument (Malvern Pananalytical, Malvern, UK). […] Dialysis was carried out in boiled Spectra/Por 1 6–8 kDa MWCO 0.32 ml/cm (Spectrum Labs, USA) tubing thoroughly washed with either buffer before use. The second 1000-fold volume of dialysis buffer was filtered and degassed using a reusable bottle-top filtration apparatus (Nalgene, USA) with disposable […] cellulose filters (VWR, Canada) prior to storage at 4 °C. Ligands were dissolved in the filtered dialysis buffer at 21 °C for approximately one hour, and any insoluble material was removed by repeated centrifugation at 21,000 × g for 10 min. […] Prior to ITC, which was initiated immediately following dialysis, the protein solutions were centrifuged at 17,000 × g and 4 °C for 30 min. Any precipitate was separated from the remaining soluble protein fraction which was quantified by absorption at A280nm and diluted with filtered dialysis buffer immediately before use.
Thermograms were recorded at 25 °C, with a reference power of 10 (dpu/sec) and monitoring of 30 injections of 9 µl BIA ligand solutions into a sample cell containing 1.4 ml of an MLP/PR10 protein solution, with 300 seconds between injections. […] To ensure that we report only the heat of reaction for each interaction, independent titrations of ligand into buffer, and buffer into protein solutions, were used to calculate and then subtract heats of dilution. After subtraction, binding isotherms were analyzed in MicroCal Origin 7 (MicroCal, USA) by fitting a single-site binding model using non-linear least squares regression analysis repeated until convergence. […] Each ITC experiment was repeated 2 to 4 times.

THS = conditions: cited from earlier work

SMILES: COc1ccc2c3c1O[C@H]1C(=O)C=C[C@H]4[C@@H](C2)N(C)CC[C@]314 [codeinone]
- Km (NISO [1]): 48 µM

SMILES: O=S(=O)(O)c1cccc2cccc(Nc3ccccc3)c12 [ANS, 8-anilinonaphthalene-1-sulfonic acid]
- ANS binding to PR10-10 (in words) (PR10-10): did not bind ANS in a typical manner
- Kd (PR10-4): 107 ± 15.3 µM
- Kd (PR10-12): 356 ± 139 µM
- Kd (MLP2): 28.6 ± 3.9 µM
- Kd (THS2): 21 µM and 20.9 µM
- Kd (NISO [2]): 61 µM and 60.5 µM
- Kd (MLP15 [3]): 78 µM and 78.4 µM
- ΔH (MLP15 [4]): -14.69 ± 0.4972 kcal/mol
- ΔS (MLP15 [4]): -29.8 cal/mol/˚K
- Kd (MLP15 [4]; single-site model): 55.3 ± 2.8 µM
- N (MLP15 [4]; single-site model): 1.06 ± 0.0244

SMILES: COC1=C[C@]23CCN(C)[C@H](Cc4ccc(OC)c(O)c42)C3=C[C@@H]1OC(C)=O [salutaridinol-7-O-acetate]
- KA (substrate kinetics) (THS): 22 µM
